Results reported in patent US9540354B2, “Diamide inhibitors of cytochrome P450” (SEQUOIA PHARMACEUTICALS, INC., priority 2008, dated 2017).

melting point: 85.5 to 86 °C
SMILES: Cc1cc(CC(C(=O)NCc2ccc3occc3c2)C(=O)N(CC(C)C)CC(C)C)n(C)n1 (stereo not shown) [Cmpd. 9]
